For this assay, the target named is PAFR (Homo sapiens, UniProt P25105). Kind of assay: cellular HTRF IP1 assay: inhibition of PAFR activation by PAF C-16 ligand (endpoint assay). It is filed as cell-based. Details: expressed in transfected cells; host or cells: HEK293. The method, then: The ability of compounds of formula (I) to inhibit the activation of the PAF receptor (PAFR) by the PAF C-16 ligand (PAF) is determined using the following cellular HTRF IP1 assay (IP1 Gq assay kit from Cisbio, Cat. no.: 62IP1APEJ) in assay buffer (1×HBSS, 20 mM Hepes, pH 7.4, 50 mM LiCl and containing 0.1% (w/v) BSA):
Evaluation of the Inhibition of PAFR Activation Using an Endpoint Assay
HEK293 cells overexpressing human PAFR (produced in-house) are seeded into a Poly-D-Lysine coated 384 well white cell culture microtiter assay plate with lid (15.000 cells per well). Subsequently, the plates are incubated over night at 37° C./5% CO2. On the next day, cells are being washed and subsequently, various concentrations of the test compounds (compounds in 100% DMSO; final concentration of DMSO in wells is 1%) are added to the assay plate via Echo 555 acoustic liquid handler. Plates are then incubated with lid for 90 minutes at 37° C./5% CO2. Thereafter, PAF ligand (Cayman Chemical Company, Item no.: 60900) is added at a final concentration of 11 nM. Plates are then incubated with lid for 60 minutes at 37° C./5% CO2. Then, 5 μl per well of Anti-IP1-Antibody-Cryptate solution and 5 μl per well of IP1-d2 solution are added to all wells of the plate and the plate is incubated for another 60 minutes light protected at room temperature. The emissions at 620 nm and 665 nm (Excitation wavelength: 320 nm) are measured using an Envision Reader (PerkinElmer).
In general terms: TR-FRET usually uses a lanthanide donor and a delayed reading to cut background.

[1] abbreviates: HEK293 cells overexpressing human PAFR, PAF ligand 11 nM, Table 2.
Setting [2] is: dedicated head-to-head comparison assay run: cyclopropylene vs di-methyl / cyclobutylene analogues.

pIC50: −log10 of the molar value.

Sequence of PAFR (P25105 whole entry): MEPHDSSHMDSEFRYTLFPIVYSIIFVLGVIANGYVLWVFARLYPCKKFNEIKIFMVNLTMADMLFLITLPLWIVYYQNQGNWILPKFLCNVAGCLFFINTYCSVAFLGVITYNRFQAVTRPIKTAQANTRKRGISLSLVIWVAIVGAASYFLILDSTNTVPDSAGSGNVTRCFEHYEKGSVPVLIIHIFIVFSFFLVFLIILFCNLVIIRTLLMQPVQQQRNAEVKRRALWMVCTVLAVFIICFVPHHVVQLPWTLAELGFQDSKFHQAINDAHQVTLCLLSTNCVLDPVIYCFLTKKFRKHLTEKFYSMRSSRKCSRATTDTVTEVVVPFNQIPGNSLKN

Under setting [1], `Cc1nnc2n1-c1sc3c(c1C(c1ccccc1Cl)=NC21CC1)C[C@H](C(=O)NC1CC(F)(F)C1)C3` [Example 27] had a pIC50 of 8.68.

Consider `Cc1nnc2n1-c1sc3c(c1C(c1ccccc1Cl)=NC21CC1)C[C@H](C(=O)NC1[C@H]2CCC[C@@H]12)C3` (stereo partly drawn) [Example 19], for which the pIC50 under setting [1] was 8.80. This pIC50 and that of the compound before are within 0.2 log units of each other. Turning to `Cc1nnc2n1-c1sc3c(c1C(c1ccccc1Cl)=NC21CC1)C[C@H](C(=O)N[C@H]1CCN(c2ncccn2)C1)C3` [Example 62], under setting [1], the pIC50 was 8.19. Still for that read-out and setting: as for `Cc1nnc2n1-c1sc3c(c1C(c1ccccc1Cl)=NC21CC1)C[C@H](C(=O)NC1CCn2nccc2C1)C3` (stereo partly drawn) [Example 77], the figure is 8.00; as for `Cc1nnc2n1-c1sc3c(c1C(c1ccccc1Cl)=NC21CC1)C[C@H](C(=O)NC1CCCS(=O)(=O)C1)C3` (stereo partly drawn) [Example 121, (13′S)-9′-(2-chlorophenyl)-N-(1,1-dioxo-1lambda6-thian-3-yl)-3′-methyl-16′-thia-2′,4′,5′,8′-tetraazaspiro[cyclopropane-1,7′-tetra-cyclo[8.6.0.0^2,6.0^11,15]hexadecane]-1′(10′),3′,5′,8′,11′(15′)-pentaene-13′-carboxamide], 7.52.

Consider `Cc1ccccc1C1=NC2(CC2)c2nnc(C)n2-c2sc3c(c21)C[C@H](C(=O)N1CCOCC1)C3` [Example 8, (13′S)-3′-methyl-9′-(2-methylphenyl)-13′-(morpholine-4-carbonyl)-16′-thia-2′,4′,5′,8′-tetraazaspiro[cyclopropane-1,7′-tetracyclo[8.6.0.0^2,6.0^11,15]hexadecane]-1′(10′),3′,5′,8′,11′(15′)-pentaene], for which, under setting [1], the pIC50 is 8.08. The same measure, in the same setting: as for `Cc1nnc2n1-c1sc3c(c1C(c1ccccc1Cl)=NC21CC1)C[C@H](C(=O)N[C@H]1CCCOC1)C3` [Example 29], the figure is 8.08.

Under setting [1], `Cc1nnc2n1-c1sc3c(c1C(c1ccccc1Cl)=NC21CC1)C[C@H](C(=O)N[C@H]1CC[C@H](C(F)F)CC1)C3` [Example 76] showed a pIC50 of 8.72.

For the compound `Cc1nnc2n1-c1sc3c(c1C(c1ccccc1Cl)=NC21CC1)C[C@H](C(=O)NC1CCC12CCOCC2)C3` (stereo partly drawn) [Example 64], under setting [1], the pIC50 was 8.07. Compound `Cc1nnc2n1-c1sc3c(c1C(c1ccccc1Cl)=NC21CC1)C[C@H](C(=O)NC1(c2ccccc2)CCOCC1)C3` [Example 96] showed a pIC50 under setting [1] of 8.22. Under setting [1], `CC(=O)N1CCC(N(C)C(=O)[C@@H]2Cc3sc4c(c3C2)C(c2ccccc2Cl)=NC2(CC2)c2nnc(C)n2-4)CC1` [Example 73] had a pIC50 of 7.68. Compared with the last compound, the pIC50 is 0.54 log units lower. Still for that read-out and setting: the same measure for `Cc1nnc2n1-c1sc3c(c1C(c1ccccc1Cl)=NC21CC1)C[C@H](C(=O)N(C)C1CCS(=O)(=O)C1)C3` (stereo partly drawn) [Example 89]: 7.82. With `Cc1nnc2n1-c1sc3c(c1C(c1ccccc1Cl)=NC21CC1)C[C@H](C(=O)NC1CCc2cc(F)ccc21)C3` (stereo partly drawn) [Example 61], the pIC50 reads like this: under setting [1], 9.22; under setting [2], 8.96.

Regarding `Cc1nnc2n1-c1sc3c(c1C(c1ccccc1Cl)=NC21CC1)C[C@H](C(=O)NC1(C)CCOCC1)C3` [Example 45], under setting [1], the pIC50 is 7.92. In turn, `Cc1nnc2n1-c1sc3c(c1C(c1ccccc1Cl)=NC21CC1)C[C@H](C(=O)NC1(c2ccc(Cl)cn2)CC1)C3` [Example 35] had a pIC50 under setting [1] of 8.80. Still for that read-out and setting: the same measure for `Cc1nnc2n1-c1sc3c(c1C(c1ccccc1Cl)=NC21CC1)C[C@H](C(=O)N[C@H]1C[C@@H]1C)C3` [Example 12]: 8.66. In turn, `Cc1nnc2n1-c1sc3c(c1C(c1cc(N)ccc1Cl)=NC21CC1)C[C@H](C(=O)N1CCOCC1)C3` [Example 6, 4-chloro-3-[(13′S)-3′-methyl-13′-(morpholine-4-carbonyl)-16′-thia-2′,4′,5′,8′-tetraazaspiro[cyclopropane-1,7′-tetracyclo[8.6.0.0^2,6.0^11,15]hexadecane]-1′(10′),3′,5′,8′,11′(15′)-pentaen-9′-yl]aniline] gave a pIC50 under setting [1] of 7.60. In the case of `Cc1nnc2n1-c1sc3c(c1C(c1ccccc1Cl)=NC21CC1)C[C@H](C(=O)N[C@@H]1COCC(F)(F)C1)C3` [Example 110], under setting [1], the pIC50 is 8.37. The compound `Cc1nnc2n1-c1sc3c(c1C(c1ccccc1Cl)=NC2(C)C)C[C@H](C(=O)N[C@@H]1CCC(F)(F)C1)C3` [reference compound] showed a pIC50 under setting [2] of 8.11.

In the case of `CO[C@@H]1CC[C@H]1NC(=O)[C@@H]1Cc2sc3c(c2C1)C(c1ccccc1Cl)=NC1(CC1)c1nnc(C)n1-3` [Example 57], under setting [1], the pIC50 is 8.15. The compound `Cc1nnc2n1-c1sc3c(c1C(c1ccccc1Cl)=NC2)C[C@H](C(=O)N1CCOCC1)C3` [S-bepafant, reference compound] showed a pIC50 (S-bepafant and its methylated derivatives in the above-mentioned assay) of 7.13.

`Cc1nnc2n1-c1sc3c(c1C(c1ccccc1Cl)=NC21CC1)C[C@H](C(=O)N[C@@H]1C[C@H]1C)C3` [Example 107] showed a pIC50 under setting [1] of 8.57. In turn, `Cc1nnc2n1-c1sc3c(c1C(c1ccccc1Cl)=NC21CC1)C[C@H](C(=O)NC1(C(F)(F)F)CC1)C3` [Example 16] had a pIC50 under setting [1] of 8.39. For the compound `Cc1nnc2n1-c1sc3c(c1C(c1ccccc1Cl)=NC21CC1)C[C@H](C(=O)NC1(C(C)(C)O)CC1)C3` [Example 122, (13′S)-9′-(2-chlorophenyl)-N-[1-(2-hydroxy-propan-2-yl)cyclopropyl]-3′-methyl-16′-thia-2′,4′,5′,8′-tetraazaspiro[cyclopropane-1,7′-tetracyclo[8.6.0.0^2,6.0^11,15]hexadecane]-1′(10′),3′,5′,8′,11′(15′)-pentaene-13′-carboxamide], under setting [1], the pIC50 is 7.43. Under setting [1], `Cc1nnc2n1-c1sc3c(c1C(c1ccccc1Cl)=NC21CC1)C[C@H](C(=O)N[C@H]1CCc2ccccc21)C3` [Example 82] gave a pIC50 of 8.82. This pIC50 is 1.39 log units higher than that of the compound before. Same read-out and setting: as for `Cc1nnc2n1-c1sc3c(c1C(c1ccccc1Cl)=NC21CC1)C[C@H](C(=O)N1CCOCC12CC2)C3` [Example 127, (13′S)-9′-(2-chlorophenyl)-3′-methyl-13′-{7-oxa-4-azaspiro[2.5]octane-4-carbonyl}-16′-thia-2′,4′,5′,8′-tetraazaspiro[cyclopropane-1,7′-tetracyclo[8.6.0.0^2,6.0^11,15]hexadecane]-1′(10′),3′,5′,8′,11′(15′)-pentaene], the figure is 8.24; as for `CCn1ncc2c1CC[C@@H](NC(=O)[C@@H]1Cc3sc4c(c3C1)C(c1ccccc1Cl)=NC1(CC1)c1nnc(C)n1-4)C2` [Example 99], 8.09; as for `Cc1nnc2n1-c1sc3c(c1C(c1cc(Cl)ccc1Cl)=NC21CC1)C[C@H](C(=O)N1CCOCC1)C3` [Example 3, (13′S)-9′-(2,5-dichlorophenyl)-3′-methyl-13′-(morpholine-4-carbonyl)-16′-thia-2′,4′,5′,8′-tetraazaspiro[cyclopropane-1,7′-tetracyclo[8.6.0.0^2,6.0^11,15]hexadecane]-1′(10′),3′,5′,8′,11′(15′)-pentaene], 7.77. On the same count and under the same terms, the same measure for `Cc1nnc2n1-c1sc3c(c1C(c1ccccc1Cl)=NC21CC1)C[C@H](C(=O)N[C@@H]1C[C@H]1c1ccccc1)C3` [Example 60]: 8.89.

Take `Cc1nnc2n1-c1sc3c(c1C(c1ccccc1Cl)=NC2(C)C)C[C@H](C(=O)N(C)[C@H]1CC[C@H](O)CC1)C3` [reference compound]: under setting [2], the pIC50 is 7.06. Compound `Cc1nnc2n1-c1sc3c(c1C(c1ccccc1Cl)=NC21CC1)C[C@H](C(=O)NC1CCc2cccnc21)C3` (stereo partly drawn) [Example 42] showed a pIC50 under setting [1] of 8.15. For the compound `Cc1nnc2n1-c1sc3c(c1C(c1ccccc1Cl)=NC2(C)C)C[C@H](C(=O)NC1CCc2cc(F)ccc21)C3` (stereo partly drawn) [reference compound], the pIC50 under setting [2] is 8.31.

The pIC50 is −log10 of the IC50, conventionally taken in molar units. The low end stands for a high IC50, the high end for a low IC50.
